Experimental data from PMC7696255, “In-Silico Identified New Natural Sortase A Inhibitors Disrupt S. aureus Biofilm Formation” (International Journal of Molecular Sciences, 2020).
Like-named read-outs stand apart in the source and are kept apart here.

Legend:
S. aureus sortase A [1] = molecular target: T1, S. aureus sortase A (Staphylococcus aureus, UniProt Q2FV99); assay: SrtA enzyme inhibition FRET assay, DABCYL-LPETG-EDANS substrate; format: biochemical
T1 construct: purchased AnaSpec AS-72229
T1 sequence (Q2FV99 whole entry): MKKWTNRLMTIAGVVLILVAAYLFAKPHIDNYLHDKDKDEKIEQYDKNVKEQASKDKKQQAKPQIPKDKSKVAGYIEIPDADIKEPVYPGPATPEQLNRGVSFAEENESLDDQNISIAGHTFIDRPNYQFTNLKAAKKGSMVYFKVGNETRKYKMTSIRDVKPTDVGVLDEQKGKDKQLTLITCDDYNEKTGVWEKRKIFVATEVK
Description: (§1) The enzymatic reactions were carried out in black, low-binding polystyrene 384 well plates (Greiner Bio-One). […] SrtA was pre-incubated in the reaction buffer with compounds for 1 h at room temperature prior to the addition of the FRET substrate. Assays were performed in 50 µL reactions with 50 ng of S. aureus sortase A and 25 µM of DABCYL-LPETG-EDANS substrate or 1 µM of 5-FAM/QXL^TM 520 substrate. The inhibitory activity of the compounds was determined by monitoring the rise in fluorescence intensity over 24 h at Ex/Em = 336 nm/490 nm for the DABCYL/EDANS substrate and Ex/Em = 490 nm/520 nm for the 5-FAM/QXL 520 substrate on a Tecan Infinite M1000 Pro reader.
(§2) Raw fluorescence data were corrected for autofluorescence before computing percentage inhibition values. These percentage inhibition values were plotted against compound concentration using GraphPad Prism version 8.0 by nonlinear regression analysis using least squares fit method for IC50 determination. Testing was performed twice to ensure reproducibility of results.

S. aureus sortase A [2] = molecular target: T1, S. aureus sortase A; assay: SrtA enzyme inhibition FRET assay, 5-FAM/QXL 520 substrate; format: biochemical
Description: as §1, §2

S. aureus ATCC 25923 = assay: S. aureus whole cell assay (MIC, microbroth dilution); format: cell-based, Staphylococcus aureus; details: Staphylococcus aureus, ATCC25923, 24 h
Description: (§3) Minimum inhibitory concentration (MIC) tests were performed according to procedures of the Clinical Laboratory Standards Institute (CLSI) with minor changes using the microbroth dilution technique in a 384-well setup. Inoculum of each S. aureus strain was prepared by suspending segregated colonies in sterile saline to a 0.5 McFarland standard. An inoculum of 2–8 × 10^5 CFU/mL was incubated with the compounds for 24 h at 37 °C. Gentamicin (data not shown) was incubated in the same manner as the test compounds and served as a positive control. The effect of the compounds on bacterial growth was calculated by quantifying the optical density at 600 nm on a microplate reader (Tecan, Infinite M1000, Salzburg, Austria). Dilutions of the inoculum were cultivated on agar to verify the validity of the inoculum seeding density and absence of contamination. All tests were executed in triplicate during two separate experiments.

S. aureus Newman = assay: as above; format: cell-based, Staphylococcus aureus; details: for MIC: Staphylococcus aureus, NEWMAN, 24 h; for growth inhibition of S. aureus: at 200 µM, strain not given
Description: as §3

A549 cells = assay: Mammalian cell cytotoxicity assay (PrestoBlue); format: cell-based, human; details: Homo sapiens, A549, 72 h, read-out: Mammalian cell lines IC50
Description: (§4) A549 and HepG2 cells were seeded at 1500 and 2500 cells per well, respectively, in 384-well microplates and incubated at 37 °C in the presence of 5% CO2. The next day, cells were treated with compounds then incubated for an additional 72 h. To assess the cytotoxic effect of the compounds PrestoBlue cell viability reagent (Life Technologies, Carlsbad, CA, USA) was used. After the 72 h incubation with compounds, the 384-well assay plates were incubated with this viability indicator dye for 2 h (A549) and 4 h (HepG2) before fluorescence reading at Ex/Em = 560 nm/590 nm on the Tecan Infinite M1000 Pro reader. Puromycin (data not shown) was used as the positive control against both cell lines. All tests were executed in triplicate on two separate experiments.

HepG2 cells = assay: Mammalian cell cytotoxicity assay (PrestoBlue); format: cell-based, human; details: Homo sapiens, HepG2, 72 h, read-out: Mammalian cell lines IC50
Description: as §4

[3] = system: S. aureus ATCC 33591 (MRSA); assay: S. aureus whole cell assay (MIC, microbroth dilution); format: cell-based, Staphylococcus aureus; details: Staphylococcus aureus, 24 h
Description: as §3

[4] = system: S. aureus ATCC 33591 (MRSA) biofilm formation; assay: Biofilm inhibitory assay (crystal violet), biofilm formation; format: cell-based, Staphylococcus aureus; details: Staphylococcus aureus; S. aureus ATCC 33591 (MRSA); biofilm formation; read-out: Biofilm Inhibition IC50
Description: (§5) The effectiveness of SrtA inhibitors in reducing biofilm formation and growth was assessed using the crystal violet (CV) biofilm assay with the following modifications. TSB with 2% glucose (TSB without glucose for E. coli) was inoculated with 10^5 CFU/mL of S. aureus and E. coli overnight cultures. A total of 90µl of this cell suspension was then dispensed into 96-well microtiter plates containing 10 µL of different concentrations of the SrtA inhibitors. After 24 h growth at 37 °C the plates were washed with PBS to remove unbound cells and heat fixed at 60 °C for 30 min. Next, the wells were stained with 0.1% crystal violet solution for 15 min at room temperature. At the completion of the incubation plates were washed 3 times with PBS and dried. Then the crystal violet dye from the biofilm was solubilized with 200 µL of DMSO. A total of 100 µL of this solution was then moved to a new microtiter plate for absorbance measurement at 595 nm. For pre-formed biofilm assay, the plates were prepared and incubated as mentioned earlier, without SrtA inhibitors. After 24 h incubation, the culture supernatant was removed gently and biofilm carefully washed with sterile PBS. Next, 10 µL of different concentrations of SrtA inhibitors with 90 µL of TSB with 2% glucose were added carefully into the wells and incubated at 37 °C for 24 h. The amount of crystal violet staining of biofilm was measured as described above. The results were reported as percent inhibition normalized to the wild type control. Two independent experiments were performed in triplicate to ensure reproducibility.

[5] = system: S. aureus Newman biofilm formation; assay: as above; format: cell-based, Staphylococcus aureus; details: CV assay; for IC50: biofilm formation, read-out: Biofilm Inhibition IC50
Description: as §5

[6] = system: adherence of S. aureus Newman to fibrinogen; assay: Fibrinogen binding assay; format: cell-based, Staphylococcus aureus
Description: Fibrinogen binding assay was completed as described but with slight revision. A flat-bottom 96-well plate was covered with fibrinogen protein by adding 50 µL of 20 µg/mL of fibrinogen protein from bovine plasma diluted in saline and incubated at 4 °C for 24 h. The coated plates were gently rinsed twice with PBS and blocked for 60 min with 4% bovine serum albumin (BSA). The plates were then washed 3 times with PBS. For this assay, S. aureus Newman strain was cultivated in TSB at 37 °C to exponential phase (OD600 = 0.5) and then the bacterial culture was incubated with various concentrations of test compound or control for 2.5 h. Then the cells were pelleted by centrifugation at 10,000× g for 10 min, the supernatants were removed and the cell pellets stored at −20 °C. The following day, cell pellets were suspended in PBS and dispersed in 100 μL aliquots to distinct wells of fibrinogen-coated 96-well plates. After 2 h of growth at 37 °C, the bacterial supernatant was discarded and the wells were rinsed gently with 150 µl PBS. Then the bacterial cells were fixed with 2% (v/v) glutaraldehyde and incubated for 30 min at 25 °C. After a wash with PBS, bound cells were stained with 0.1% crystal violet dye for 15 min. Plates were rinsed twice again with PBS, enclosed with aluminum foil, then stored at room temperature to dry overnight. On the next day absorbance was measured at 570 nm. The results were described as the percent of adhesion inhibition normalized to the wild type control. Two independent experiments were performed in triplicate to ensure reproducibility.

[7] = Sortase A IC50, DABCYL-LPETG-EDANS substrate, 4 h
[8] = Sortase A IC50, 5-FAM/QXL substrate, 10 min

Structure (SMILES) | IC50 (S. aureus sortase A [1]) [µM] | IC50 (S. aureus sortase A [2]) [µM] | IC50 (S. aureus sortase A [1]; [7]) [µM] | IC50 (S. aureus sortase A [2]; [8]) [µM] | MIC (S. aureus ATCC 25923) [µM] | MIC (S. aureus Newman) [µM] | growth inhibition of S. aureus (S. aureus Newman) | IC50 (A549 cells) [µM] | IC50 (HepG2 cells) [µM] | further results
CC(C)=CCc1c2c(c(O)c3c(=O)c(-c4ccc(O)c(O)c4)coc13)C=CC(C)(C)O2 [Compound N1048, Auriculasin] | > 200 | > 200 | – | – | – | – | – | – | – | –
COc1c(C)c2c(c(O)c1C/C=C(\C)CCC(=O)OC1c3cc(O)cc(O)c3C(=O)OC1(C)O)C(=O)OC2 (stereo not shown) [Compound N1871, Antibiotic F 13459] | > 200 | > 200 | – | – | – | – | – | – | – | –
CC1=CC2c3c(cc4oc5cc(C)cc(O)c5c4c3C)OC3(O)C(=O)c4oc5cc(C)cc(O)c5c4C(C)(C1)C23 (stereo not shown) [Compound N2450, Asticolorin B] | – | – | – | – | – | – | – | – | – | IC50 (S. aureus sortase A [1]; read-out: Sortase A IC50, DABCYL-LPETG-EDANS substrate, 4 h): > 200 µM; IC50 (S. aureus sortase A [2]; read-out: Sortase A IC50, 5-FAM/QXL substrate, 10 min): > 200 µM
CC(/C=C/[C@@]1(C)[C@H](C)CCC(=O)[C@@H]1C)=C\Cc1c(O)c(Cl)c(C)c(C=O)c1O [Compound N1321, Ascochlorin] | – | – | > 200 | > 200 | – | – | – | – | – | –
O=C(/C=C/c1ccc(O)c(O)c1)O[C@@H]1C[C@](O)(C(=O)O)C[C@@H](O)[C@H]1O [Chlorogenic acid, reference compound] | – | – | 88 ± 5.6 | 144 ± 16 | > 200 | > 200 | did not inhibit the growth | > 200 | > 200 | IC50 (S. aureus sortase A [2]; Sortase A IC50, 5-FAM/QXL substrate, after 24 h): 103 ± 31 µM
COc1cc(/C=C/C(=O)CC(=O)/C=C/c2ccc(O)c(OC)c2)ccc1O [Curcumin, reference compound] | – | – | – | – | > 200 | > 200 | did not inhibit the growth | 48.2 ± 12.7 | 39.6 ± 5.3 | MIC [3]: > 200 µM; IC50 [4]: > 150 µM; concentration giving >90% inhibition of biofilm formation [5]: 174 µM; IC50 ([5]; Staphylococcus aureus, NEWMAN): 51.2 ± 4.4 µM; IC50 [5]: 51 µM; IC50 ([6]; Staphylococcus aureus, NEWMAN, read-out: Fibrinogen adherence Inhibition IC50): 46.5 ± 6.2 µM; concentration giving ≥90% prevention of S. aureus Newman adherence to fibrinogen ([6]; compared to untreated wildtype strain): > 170 µM
